We go through 3 compounds from PMC6917698, “One-Pot Radiosynthesis and Biological Evaluation of a Caspase-3 Selective 5-[^123,125I]iodo-1,2,3-triazole derived Isatin SPECT Tracer” (Scientific Reports, 2019).

Where only a bound is given, the exact number is not on record here.

One may read the logD as the decadic logarithm of the distribution of all forms, ionised or not, between an organic phase and buffer at a given pH. Low values mean a more hydrophilic compound, high ones a more lipophilic compound. The Ki is a dissociation constant, usually derived from enzyme kinetics or from competition with a known ligand. Usually IC50 stands for the concentration that gives 50% inhibition.

Data set [1] in a line: Plasma metabolite analysis by HPLC. The following applies: 15 min post-injection, i.v. The format is in vivo, mice. From the text:
However, the overall uptake in the tumour was too low to allow in vivo imaging of tumour apoptosis with SPECT. […] It is unclear if this reflects drug induced apoptosis, or if the observed changes were due to swelling or increased local blood flow. […] A single polar radioactive metabolite was detected consistent with deiodination in vivo to give [^125I]iodide. However, it should be noted that a similar polar metabolite has been observed for the non-iodinated analog [^18F]ICM-11, and the low uptake in the thyroid (2.4 ± 1%ID/g at 60 min post-injection) and high liver uptake point to another metabolic route. In any case, the rapid metabolism makes FITI poorly suited as a tracer for in vivo imaging of apoptosis.
After an incubation period at 37 °C
linear correlation software (OriginPro 2015).
3.2. Plasma metabolite analysis
The supernatant was decanted and mixed with
3.3. Biodistribution studies in mice
week prior to initiation of studies.
College London Animal Ethics Committee.4
were rapidly excised and weighed.

The test system of data set [2] is SW1222 tumour-bearing mice. Kind of data set: Ex vivo biodistribution in SW1222 tumour-bearing mice. Particulars: for Uptake in tumour: SW1222 xenograft, 60 min after i.v. injection.
The nature of data set [3]: Log D measurement (n-octanol/PBS, gamma counting). The following applies: measured with 125I-labelled compound. The format is physicochemical.
Data set [4] concerns the target T1, Recombinant human caspase-3 (Homo sapiens, UniProt P42574).
T1 sequence (P42574 29-175 limits assumed): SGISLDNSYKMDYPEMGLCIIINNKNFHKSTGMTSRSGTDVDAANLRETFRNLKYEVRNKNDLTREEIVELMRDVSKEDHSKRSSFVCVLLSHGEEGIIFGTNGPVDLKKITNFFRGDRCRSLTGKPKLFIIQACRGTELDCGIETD
T1 sequence (P42574 176-277 limits assumed): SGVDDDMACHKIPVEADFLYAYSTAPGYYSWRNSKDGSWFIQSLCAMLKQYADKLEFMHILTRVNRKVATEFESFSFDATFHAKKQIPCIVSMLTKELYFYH
Description: Caspase enzyme inhibition assay (fluorogenic Ac-DEVD-AMC), caspase-3.

Data set [5] addresses Recombinant human caspase-8 (Homo sapiens, UniProt Q14790). Kind of data set: Caspase enzyme inhibition assay (fluorogenic Ac-IETD-AMC), caspase-8.
The mark [6] stands for this setting: control animals, 60 min after i.v. tail vein injection.

Recombinant human caspase-8, sequence (Q14790 217-374 limits assumed): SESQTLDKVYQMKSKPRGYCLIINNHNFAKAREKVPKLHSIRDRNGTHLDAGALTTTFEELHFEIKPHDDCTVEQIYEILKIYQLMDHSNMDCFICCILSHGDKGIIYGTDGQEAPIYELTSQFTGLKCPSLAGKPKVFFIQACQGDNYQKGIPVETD
Recombinant human caspase-8, sequence (Q14790 385-479 limits assumed): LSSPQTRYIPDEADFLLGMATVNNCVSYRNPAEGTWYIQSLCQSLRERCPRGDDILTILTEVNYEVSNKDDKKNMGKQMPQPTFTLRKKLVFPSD

Turning to `O=C1C(=O)N(Cc2nnn(CCF)c2[125I])c2ccc(S(=O)(=O)N3CCCC3COc3ccc(F)cc3F)cc21` (stereo not shown) [[^125I]FITI], the “Intact parent tracer in mouse plasma” value in data set [1] was “less than 50%”. The same compound had an Uptake in thyroid in data set [2] (60 min post-injection) of 2.4 ± 1 %ID/g. Besides, in data set [2] (setting [6]), the Uptake in liver turned out to be 17 ± 6 %ID/g, the “Uptake in small intestine” value is on record as 48 ± 13 %ID/g and the Uptake in stomach is recorded as 28 ± 25 %ID/g. Further, the Uptake in tumour in data set [2] (control animals) amounted to 0.7 ± 0.4 %ID/g. The Uptake in tumour in data set [2] (etoposide-treated mice (50 mg/kg, 24 hrs, i.p.), p < 0.001 vs control) is 1.5 ± 0.2 %ID/g.

On to `O=C1C(=O)N(Cc2nnn(CCF)c2I)c2ccc(S(=O)(=O)N3CCC[C@H]3COc3ccc(F)cc3F)cc21` [FITI, (S)-5-((2-((2,4-difluorophenoxy)methyl)pyrrolidin-1-yl)sulfonyl)-1-((1-(2-Fluoroethyl)-5-(Iodo)-1H-1,2,3-Triazol-4-yl)methyl)Indoline-2,3-dione], for which the logD in data set [3] is 1.6 ± 0.1. Also, the “Increase in tumour uptake after etoposide-induced cell death” value in data set [2] (SW1222 xenograft model, etoposide vs control) worked out at 2 fold. Moreover, the Ki in data set [4] was found to be 0.0061 ± 0.0009 µM. The IC50 in data set [5] was above 50 µM.

In turn, `O=C1C(=O)N(Cc2nnn(CCF)c2I)c2ccccc21` [compound 4] gave a logD in data set [3] of 1.14 ± 0.06. For the same compound, the Ki in data set [4] was above 50 µM.
